Assay results reported in US20090227606A1, “Methods for Preventing or Treating Acute and Chronic Pain” (priority 2006, published 2009).
“Also recorded” adds a separate entry of the source.

Columns and labels:
MCP-1 (CCL2) = test: ELISA of MCP-1 release from cultured astrocytes; format: cell-based, rat; settings: seven days
Description: After approximately 14 days (2 days after subplating into plates, DIV 14) astrocytes had formed a confluent monolayer. […] Phase contrast microscopy was then carried out in order to assess the morphology of cells after the various treatments. Length of astrocyte processes was quantified by measuring all processes in 2-3 phase contrast images/group by an independent observer, blinded to the treatment groups using Image J v1.34s (National Institutes of Health, Bethesda, Md.).
Standard ELISA was performed for quantitative determination of MCP-1 and MIP-2 protein in cell culture supernatant. Assays were carried out according to the manufacturer's specifications (Biosource, Camarillo, Calif.) using the sandwich enzyme immunoassay procedure. Optical density at 450 nm was obtained using the MRX Revelations program (Dynex Technologies, Chantilly, Va.) and relative protein concentrations were determined by comparing samples to the standard curve generated.

GLAST = test: DsRed-GLAST-positive puncta in mouse spinal cord dorsal horn; format: in vivo
Description: With these in vivo data collected, further experiments were performed in the transgenic mice to more clearly define the effects of propentofylline treatment on GLT-1 and GLAST in the spinal cord. As discussed above, following in vivo testing, mice were transcardially perfused and tissue was fixed with paraformaldehyde. Lumbar spinal cord sections were identified and post-fixed in paraformaldehyde. After one week in sucrose to prevent freeze fracture, spinal cord segments were frozen in dry ice, mounted and prepared with cryostat sectioning. Sections were then subjected to immunohistochemical analysis. […] In order to quantitate the relative number of eGFP (marker for GLT-1) or DsRed (marker for GLAST) puncta in each spinal cord dorsal horn, images using a fluorescence microscope were taken with a Q-Fire cooled camera (397 ms exposure). […] An observer blind to the treatment groups was used to count the relative number of GLT-1 or GLAST positive puncta in the ipsilateral (injured) dorsal horn versus the contralateral (non-injured) dorsal horn. […]
As described previously with rats, mice were transcardially perfused with 0.1 M PBS (phosphate-buffered saline), pH 7.4, followed by 4%-paraformaldehyde in PBS on day 12 post-L5 spinal nerve transection. […] The sections were examined with a fluorescence microscope, and images were captured with a Q-Fire cooled camera. […]

CCCn1cnc2c1c(=O)n(CCCCC(C)=O)c(=O)n2C [propentofylline]
LPS-induced MCP-1 (CCL2) release (MCP-1 (CCL2); LPS 1 μg/ml, propentofylline 1000 μM, db-cAMP 250 μM): reversed by co-treatment with propentofylline; also recorded: significantly attenuated | basal MCP-1 (CCL2) release, treatment alone (MCP-1 (CCL2); without LPS): had no effect | DsRed-GLAST-positive puncta in injured mice (GLAST; L5/propentofylline vs L5/saline group, day 12): significantly enhanced the number of DsRed-GLAST-positive puncta; also recorded: increased the levels back to that seen in the contralateral side | DsRed-GLAST expression in sham mice (GLAST; sham/propentofylline group): unaffected
